Test system: HCV replicon RNA in replicon cells
Experiment: Replicon RNA response to antiviral agent(s), replicon RNA level by real time PCR (Taqman assay)
Assay type: cell-based
Experimental: Replicon cells were seeded at ˜5000 cells/well in 96-well collagen I-coated Biocoat plates (Becton Dickinson). At 24 hrs post-seeding, a series of replicon cells were treated with a HCV protease inhibitor and a HCV inhibitor. The final concentration of DMSO was 0.5%, fetal bovine serum was 10%, and G418 (an aminoglycoside used as a selective agent) was 500 μg/mL.
To each concentration of Compound 10p, HCV inhibitor Compound 22 was titrated. After 3 days, the cells were washed with PBS and lysed in 1× Cell Lysis Buffer (Ambion cat #8721).
The replicon RNA level was measured using real time PCR (Taqman assay). The ampicon was located in NS5b. The PCR primers used were: 5B.2F, ATGGACAGGCGCCCTGA (SEQ ID NO: 1); 5B.2R, […] (SEQ ID NO: 2); the probe sequence was FAM-labeled CACGCCATGCGCTGCGG (SEQ ID NO: 3). GAPDH RNA was used as endogenous control and was amplified in the same reaction as NS5b (multiplex PCR) using primers and VIC-labeled probe recommended by the manufacturer (PE Applied Biosystem). The real-time RT-PCR reactions were run on ABI PRISM 7900HT Sequence Detection System using the following program: 48° C. for 30 min, 95° C. for 10 min, 40 cycles of 95° C. for 15 sec, 60° C. for 1 min. The ΔCT values (CT5B-CTGAPDH) were plotted against test compound concentration and fitted to the sigmoid dose response model using Graphpad PRISM software (Graphpad Software Inc.). The half maximal inhibitory concentration (IC50) is the concentration necessary to achieve ΔCT=1 over the projected baseline. The 90% maximal inhibitory concentration (IC90) is the concentration necessary to achieve ΔCT=3.2 over the baseline. Alternatively, to quantitate the absolute amount of replicon RNA, a standard curve was established by including serially diluted T7 transcripts of replicon RNA in the Taqman assay. All Taqman reagents were from PE Applied Biosystem.

| Compound | relative inhibition (logarithmic scale) of replicon RNA (Cpd 10p 0.15 μM, Compound 22 0 μM, replicon cells treated 3 days) | relative inhibition (logarithmic scale) of replicon RNA (Cpd 10p 1.2 μM, Compound 22 0 μM, replicon cells treated 3 days) | relative inhibition (logarithmic scale) of replicon RNA (combination: Compound 22 0.045 μM + Cpd 10p 0.15 μM, 3 days) | relative inhibition (logarithmic scale) of replicon RNA (combination: Compound 22 0.045 μM + Cpd 10p 1.2 μM, 3 days) | relative inhibition (logarithmic scale) of replicon RNA (combination: Compound 22 0.405 μM + Cpd 10p 0.15 μM, 3 days) | relative inhibition (logarithmic scale) of replicon RNA (combination: Compound 22 0.405 μM + Cpd 10p 1.2 μM, 3 days) |
| --- | --- | --- | --- | --- | --- | --- |
| CC(C)(C)NC(=O)N[C@H](C(=O)N1C[C@H]2[C@@H]([C@H]1C(=O)NC(CC1CCC1)C(=O)C(N)=O)C2(C)C)C(C)(C)C (stereo partly drawn) [Cpd 10p, (1R,2S,5S)-N-(4-amino-1-cyclobutyl-3,4-dioxobutan-2-yl)-3-((S)-2-(3-tert-butylureido)-3,3-dimethylbutanoyl)-6,6-dimethyl-3-azabicyclo[3.1.0]hexane-2-carboxamide, reference compound] | −0.74 | −1.72 | – | – | – | – |
| COc1cnc2c(c1)c(C#N)c(-c1ccc(S(=O)(=O)N[C@@H](C)C(F)(F)F)cn1)n2C1CCC1 [Cpd 22, 6-(3-cyano-1-cyclobutyl-5-methoxy-1H-pyrrolo[2,3-b]pyridin-2-yl)-N-[(2S)-1,1,1-trifluoropropan-2-yl]pyridine-3-sulfonamide] | – | – | −1.09 | −1.77 | −1.45 | −1.91 |

Reference: patent US9198907B2, “Combinations of a HCV inhibitor such as bicyclic pyrrole derivatives and a therapeutic agent” (PTC Therapeutics, Inc., priority 2009, dated 2015)
